According to patent US11034991B2, “Methods to determine KDM1A target engagement and chemoprobes useful therefor” (Oryzon Genomics S.A., priority 2016, dated 2021):
“Also recorded” adds a separate entry of the source. Structures can show the parent of a compound that is named as a salt.

Key:
KDM1A in brain = test: In vivo KDM1A target engagement, brain of SAMP8 mice
Experimental: (§1) 8.1. Samples preparation and obtention of protein extracts from cells was performed as described in example 5. Frozen tissues were homogenized with a mortar and pestle chilled on dry ice. Powdered samples were resuspended in lysis buffer and forced through a 18 gauge blunt syringe needle to lyse the cells, proteins were then extracted as described above for cell pellets (example 5.2). Isolation of PBMCs from peripheral blood was also as described in example 5.2.
(§2) 8.2. Assay Protocol and Calculation of TE: same as Described in Example 7.1 and 7.2.
The methods of the invention have also been used to determine KDM1A target engagement in SAMP8 mice (a non-transgenic model for neurodegeneration reminiscent of Alzheimer's disease) which have been treated with the KDM1A inhibitor designated as Compound C. Compound C is the compound with chemical name (−)5-((((trans)-2-(4-(benzyloxy)phenyl)cyclopropyl)amino)methyl)-1,3,4-oxadiazol-2-amine, which is described in WO2012/013728. […] Female SAMP8 mice were treated with Compound C starting at 5 months of age and during 2 months. Mice were randomly distributed in three groups, receiving vehicle or Compound C at 0.11 mg/kg/day or 0.32 mg/kg/day, respectively. […] The dose was calculated according to the animal water consumption average per cage and adjusted weekly. […]

KDM1A in PBMCs = KDM1A in PBMCs (Homo sapiens (Human), UniProt O60341); test: KDM1A target engagement in PBMCs of healthy volunteers (Phase I clinical study); assay type: in vivo; settings: single oral dose of 1.5 mg, 12 and 72 h post-administration, 6 volunteers
Experimental: A Phase I clinical study has been performed to characterize the safety, tolerability, pharmacokinetics and pharmacodynamics of Compound C in healthy volunteers. The first stage of this clinical study is a randomized, double-blind, dose escalation study, in which the KDM1A inhibitor was administered as a single oral dose in capsules. Up to five different dose levels were tested in cohorts of 8 volunteers, randomized to receive either Compound C (n=6) or placebo (n=2). As part of the pharmacodynamic evaluations in this clinical study, KDM1A target engagement (TE) was assessed at pre-treatment, and 12 and 72 h after drug administration. Briefly, blood samples (10 mL) were collected in EDTA-K2 tubes from all the treated volunteers (active drug and placebo, n=8 per dose level) and PBMCs pellets obtained by density gradient centrifugation in Leucosep™ tubes and stored at −90° C. until analysis. Only PBMC samples meeting pre-established sample quality control criteria are used for the TE analysis. In particular, samples with signs of hemolysis and/or with traces of red cells are discarded.
KDM1A TE values obtained for each volunteer in the cohort of volunteers corresponding to the single dose of 1.5 mg of Compound C are shown in FIG. 11.

[1] = biological target: human recombinant KDM1A enzyme (Homo sapiens (Human), UniProt O60341); settings: read-out: KDM1A IC50 (biochemical assay)
Experimental: The ability of the chemoprobes to inhibit KDM1A was tested in vitro using the assay described below.
KDM1A inhibition assay: a multistep enzymatic reaction in which the enzyme first produces H2O2 during the demethylation of lysine 4 in a 21 AA H3K4me2 N-terminal peptide. […] After 30 min of incubation at 37° C. Amplex Red reagent and the horseradish peroxidase (HRP) solution were added according to the recommendations of the supplier (Invitrogen) and left to incubate for 5 min at room temperature in the dark. Conversion of the Amplex Red reagent to resorufin, was monitored by fluorescence (λex=540 nm, λem=590 nm) using a microplate reader (Infinite F200 Tecan). Signals were corrected for background and the IC50 value was calculated with GraphPad Prism Software.

Human recombinant MAO-A = Human recombinant MAO-A (Homo sapiens (Human), UniProt P21397); test: MAO inhibition (kynuramine fluorescence assay), MAO-A; assay type: biochemical; settings: kynuramine at KM, 1 h at 37° C.
Experimental: (§3) The target selectivity of the chemoprobes for binding FAD in KDM1A relative to other FAD containing enzymes is evaluated by testing the chemoprobes in different biochemical assays to determine its MAO-A, MAO-B, IL4I1 and SMOX inhibitory activity in vitro. All IC50 values were calculated using Graph Prism Software.
(§4) Human recombinant MAO-A and MAO-B were purchased from Sigma Aldrich (#M7316 and #M7441 respectively). Enzymatic activities and inhibition rate were analyzed in a fluorescence based assay using kynuramine (Sigma Aldrich #K3250) as a substrate. Clorgiline and Deprenyl (Sigma Aldrich #M3778 and #M003) were used as controls for specific inhibition of MAO-A and MAO-B respectively. Compounds were pre-incubated with protein for 15 min on ice in 100 mM Hepes pH 7.5. The enzymatic reaction was initiated by the addition of specific KM Kynuramine and incubated 1 h at 37° C. The reaction was stopped by adding NaOH 2N (v/v). The conversion of kynuramine to 4-hydroxyquinoline was monitored by fluorescence (λex=320 nm, λem=360 nm) using a microplate reader.

Human recombinant MAO-B = Human recombinant MAO-B (Homo sapiens (Human), UniProt P27338); test: MAO inhibition (kynuramine fluorescence assay), MAO-B; assay type: biochemical; settings: kynuramine at KM, 1 h at 37° C.
Experimental: as §3, §4

hIL-4I1 = hIL-4I1 (Homo sapiens (Human), UniProt Q96RQ9); test: IL-4I1 inhibition (phenylalanine oxidation, HRP/Amplex red); assay type: biochemical
Experimental: as §3
Human recombinant IL-411 was purchased from RD Systems (#5684-A0-020). The biochemical activity was measured by its ability to oxidize phenylalanine and produce H2O2 in a horseradish-peroxidase coupled assay using Amplex red as substrate.

[2] = biological target: Mouse recombinant SMOX enzyme (Mus musculus (Mouse), UniProt Q99K82); test: SMOX inhibition (spermine oxidation, HRP/Amplex red); assay type: biochemical; settings: KM spermine, 10 minutes; read-out: mSMOX IC50
Experimental: as §3
Mouse recombinant SMOX enzyme was provided by Professor Paolo Mariottini (Rome University). The biochemical activity was measured by its ability to oxidize spermine in a horseradish peroxidase coupled assay using Amplex red as a substrate. The assay buffer for mSMOX reaction was 100 mM Sodium Phosphate pH 8.0. The inhibition by tested compounds was monitored during 10 minutes in the presence of KM spermine.

human rKDM1A = human rKDM1A (Homo sapiens (Human), UniProt O60341); test: AlphaLISA detection of free KDM1A; assay type: binding; settings: pretreatment of the enzyme at 5 uM; chemoprobe Example 1.6 100 nM
Experimental: The AlphaLISA assay detects the proximity of a first detection agent containing […] latex donor beads containing phthalocyanine that release singlet oxygen after irradiation at […] to a second detection agent containing similar sized acceptor beads containing Europium that emit a narrow peak of light at […] after absorption of singlet oxygen. The AlphaPlex assay allows detection of multiple analytes in the same assay volume and works similarly, but two acceptor beads are used (second and third detection agents) containing respectively Terbium or Samarium and emit light at 545 nM or 645 nM after absorption. Effective singlet oxygen transfer occurs when donor and acceptor beads are separated by a distance of less than 200 nm.
For example, anti-KDM1A antibody (mAb-844) was conjugated to AlphaLISA acceptor beads (Perkin Elmer #6772001) to generate a first detection agent, and anti-KDM1A antibody (mAb-825) was conjugated to AlphaLISA donor beads (Perkin Elmer #6762013) to generate a second detection agent that together form a detection system that can be used to determine total KDM1A levels. […]

KDM1A in LNCap cells = KDM1A in LNCap cells (Homo sapiens (Human), UniProt O60341); test: KDM1A target engagement in cells (chemoprobe luminescent ELISA), LNCap; assay type: cell-based; settings: LNCap cells treated for 24 h at 0.1, 1 and 10 nM
Experimental: Coating was performed at 4° C.

KDM1A in rat PBMCs [3] = biological target: T1, KDM1A in rat PBMCs (Rattus norvegicus (Rat), UniProt A0A8I6G2K8); test: In vivo KDM1A target engagement, ex vivo rat PBMCs; settings: pooled rat PBMC, oral gavage 4 consecutive days, 1, 3, 10 and 30 ug/kg/day, two hours after last administration
Experimental: Peripheral blood mononuclear cells (PBMCs) from rat were isolated from peripheral fresh blood collected in anticoagulant tubes for blood (K2- or K3-EDTA as the preferred anticoagulant tubes) and diluted with an equal volume of PBS, using Ficoll-Paque PLUS reagent (GE Healthcare; #17-1440-02) or Leucosep Tubes (Greiner bio-one; #227288) according to manufacturer's instructions. Cells were stained with tryptan blue and cell number and viability were determined using a Neubauer Chamber in an optical microscope. Pellets of 1·10^6 PBMCs were preserved at −80° C. The same procedure can be used for isolation of PBMCs from other resources such as human or mouse blood. In the case of human samples, preferably Leucosep procedure is used, whereas for mouse PBMCs, Ficoll procedure is preferred.
8.1. Samples preparation and obtention of protein extracts from cells was performed as described in example 5. Frozen tissues were homogenized with a mortar and pestle chilled on dry ice. […]
(§5) Four different doses were used (1, 3, 10 and 30 ug/kg/day). The KDM1A target engagement was calculated as described previously (see example 7), where RX corresponds to each condition analyzed and RREF is the sample corresponding to vehicle (non treated) rat PBMCs.

KDM1A in rat lung = KDM1A in rat lung (Rattus norvegicus (Rat), UniProt A0A8I6G2K8); test: In vivo KDM1A target engagement, ex vivo rat lung; settings: pooled rat lung, oral gavage 4 consecutive days, 1, 3, 10 and 30 ug/kg/day
Experimental: as §1, §2, §5

KDM1A in rat PBMCs [4] = biological target: T1, KDM1A in rat PBMCs; test: Dynamics of KDM1A target engagement in rat pooled PBMCs; assay type: in vivo
Experimental: Obtention of proteins extracts, assay protocol and calculation of TE as described in example 8.1, 7.1 and 7.2 respectively.
PBMCs were obtained pre-dose (before starting the drug administration) and 2, 6, 24 h after the single dose administration, or pre-dose (i.e. 0 h) and 2, 6, 24, 48 and 72 h after the last drug administration in the multiple dose administration. Total and free KDM1A protein levels in PBMCs were assessed using 0.5 ug of total protein extracts. […] The KDM1A target engagement was calculated as described previously (see section 7.2)), where RX corresponds to each time-point analyzed and RREF is the sample corresponding to the pre-dose of rat PBMC.

KDM1A from THP-1 cells = KDM1A from THP-1 cells (Homo sapiens (Human), UniProt O60341); settings: pretreatment with 25 nM; chemoprobe example 1.1
Experimental: (§6) Tubes were incubated for 5 min on ice and briefly sonicated to achieve lysis. The resulting extracts were centrifuged 10 min at 14.000×g at 4° C. Supernatants were collected and quantified by Bradford assay (BIO-RAD; #500-0006) following manufacturer's instructions.
(§7) 350 μg of protein extracts (containing the chemoprobe) was then added and incubated for 30 min at room temperature (RT) using gentle rotation. The chemoprobe-KDM1A complex bound to the streptavidin beads was separated using a magnet and washed 4 times in PBS. After the last wash, samples were resuspended in 25 μL of 3×SDS Sample Buffer and analyzed by western blot. Samples were separated on a 10% Bis-Tris NuPAGE® Novex® Precast gel (Invitrogen; #P0301BOX) following manufacturer's instructions. Gels were transferred onto nitrocellulose membrane (GE Healthcare; #RPN303D) for immunodetection by semi-dry transfer. N-specific binding sites were blocked by incubating membranes in blocking buffer (5% non-fat dry milk in PBS-Tween 0.1%) at RT for 1 h. […] Signal was detected by enhanced chemiluminescence (ECL, Amersham, GE Healthcare; #W9643350) using a GeneGnome HR System (Syngene).

[5] = biological target: KDM1A from MV(4;11) cells (Homo sapiens (Human), UniProt O60341); settings: MV(4;11) cells pre-treated with 25 nM; chemoprobes Examples 1.4 and 1.5
Experimental: as §6, §7

KDM1A in MV(4;11) cells = KDM1A in MV(4;11) cells (Homo sapiens (Human), UniProt O60341); settings: 24 h of treatment
Experimental: Total protein extracts were quantified and 1 ug of total protein was used to perform the target engagement analysis as described above, using the luminescent substrate.

KDM1A in THP-1 cells = KDM1A in THP-1 cells (Homo sapiens (Human), UniProt O60341); test: KDM1A target engagement in cells (chemoprobe luminescent ELISA), THP-1; settings: THP-1 cells treated for 24 h, 0.25-25 nM

Chain of hIL-4I1 (Q96RQ9 22-567): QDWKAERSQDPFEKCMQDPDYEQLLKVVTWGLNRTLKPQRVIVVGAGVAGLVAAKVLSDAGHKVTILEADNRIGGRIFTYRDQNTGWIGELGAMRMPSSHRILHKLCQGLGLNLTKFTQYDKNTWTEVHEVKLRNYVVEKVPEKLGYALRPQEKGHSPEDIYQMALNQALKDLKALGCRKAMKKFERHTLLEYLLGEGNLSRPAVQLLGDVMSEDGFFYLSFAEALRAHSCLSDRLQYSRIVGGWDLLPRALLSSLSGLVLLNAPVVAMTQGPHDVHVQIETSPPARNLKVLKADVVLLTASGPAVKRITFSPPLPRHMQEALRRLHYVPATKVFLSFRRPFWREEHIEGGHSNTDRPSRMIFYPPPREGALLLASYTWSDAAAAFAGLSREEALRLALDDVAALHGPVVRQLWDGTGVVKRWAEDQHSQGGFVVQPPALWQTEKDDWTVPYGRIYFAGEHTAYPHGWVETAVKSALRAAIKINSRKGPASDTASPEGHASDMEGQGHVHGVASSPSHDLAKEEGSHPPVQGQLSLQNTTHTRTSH
Chain of Human recombinant MAO-A (P21397 whole entry): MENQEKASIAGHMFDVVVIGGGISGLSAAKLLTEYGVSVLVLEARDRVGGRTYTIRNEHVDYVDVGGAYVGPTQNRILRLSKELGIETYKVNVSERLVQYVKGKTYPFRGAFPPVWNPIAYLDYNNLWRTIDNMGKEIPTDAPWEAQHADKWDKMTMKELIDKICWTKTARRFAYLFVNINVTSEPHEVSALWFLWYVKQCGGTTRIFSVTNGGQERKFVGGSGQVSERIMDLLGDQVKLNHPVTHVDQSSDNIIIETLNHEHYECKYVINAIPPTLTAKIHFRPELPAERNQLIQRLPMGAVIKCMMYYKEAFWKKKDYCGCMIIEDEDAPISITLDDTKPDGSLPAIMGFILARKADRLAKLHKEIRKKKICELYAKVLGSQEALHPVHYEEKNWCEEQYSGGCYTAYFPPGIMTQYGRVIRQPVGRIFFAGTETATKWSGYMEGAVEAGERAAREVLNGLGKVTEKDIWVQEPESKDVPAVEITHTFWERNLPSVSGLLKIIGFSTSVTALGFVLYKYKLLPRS
Chain of Human recombinant MAO-B (P27338 whole entry): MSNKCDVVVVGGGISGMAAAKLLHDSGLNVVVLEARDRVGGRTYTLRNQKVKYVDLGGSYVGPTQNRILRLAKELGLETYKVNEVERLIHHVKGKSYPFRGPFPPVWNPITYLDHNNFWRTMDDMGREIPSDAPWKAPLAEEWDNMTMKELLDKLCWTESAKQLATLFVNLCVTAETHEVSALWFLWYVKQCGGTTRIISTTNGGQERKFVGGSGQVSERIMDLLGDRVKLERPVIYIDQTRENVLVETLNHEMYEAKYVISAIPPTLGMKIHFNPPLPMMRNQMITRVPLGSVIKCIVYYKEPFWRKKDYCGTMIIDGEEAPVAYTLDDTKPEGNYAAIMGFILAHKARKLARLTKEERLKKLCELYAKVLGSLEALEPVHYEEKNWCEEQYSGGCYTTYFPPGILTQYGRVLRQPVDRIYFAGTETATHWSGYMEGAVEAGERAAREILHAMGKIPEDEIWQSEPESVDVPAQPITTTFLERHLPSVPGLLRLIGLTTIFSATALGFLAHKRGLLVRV
Chain of Mouse recombinant SMOX enzyme (Q99K82 whole entry): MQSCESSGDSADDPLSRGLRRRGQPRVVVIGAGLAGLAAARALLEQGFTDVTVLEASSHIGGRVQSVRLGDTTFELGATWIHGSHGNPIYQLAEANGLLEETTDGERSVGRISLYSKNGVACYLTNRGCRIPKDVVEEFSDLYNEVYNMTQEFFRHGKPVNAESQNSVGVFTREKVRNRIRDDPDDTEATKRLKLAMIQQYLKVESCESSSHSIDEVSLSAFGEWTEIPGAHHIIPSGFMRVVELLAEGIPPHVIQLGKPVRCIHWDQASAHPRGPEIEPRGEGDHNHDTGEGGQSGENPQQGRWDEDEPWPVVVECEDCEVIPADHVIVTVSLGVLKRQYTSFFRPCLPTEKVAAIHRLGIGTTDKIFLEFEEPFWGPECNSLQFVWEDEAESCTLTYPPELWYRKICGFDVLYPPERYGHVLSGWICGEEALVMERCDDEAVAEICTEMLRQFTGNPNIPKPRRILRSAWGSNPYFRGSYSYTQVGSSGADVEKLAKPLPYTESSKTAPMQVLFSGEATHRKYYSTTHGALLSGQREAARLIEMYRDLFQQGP

Nc1nnc(CN[C@@H]2C[C@H]2c2ccc(OCc3ccccc3)cc2)o1 [Compound C, (−)5-((((trans)-2-(4-(benzyloxy)phenyl)cyclopropyl)amino)methyl)-1,3,4-oxadiazol-2-amine]
mean % KDM1A target engagement (KDM1A in brain; brain of female SAMP8 mice, 0.11 or 0.32 mg/kg/day in drinking water, 2 months): clear dose-response of KDM1A target engagement | brain penetration (KDM1A in brain; mouse, in vivo): enters the brain; also recorded: cross the blood-brain barrier | KDM1A TE (KDM1A in PBMCs): Clear KDM1A target engagement | IC50 [1]: 0.101 µM

N[C@H]1CC[C@H](N[C@@H]2C[C@H]2c2ccc(-c3cccc(CCC(=O)NCCOCCOCCOCCOCCOCCOCCOCCOCCOCCOCCOCCNC(=O)CCCC[C@@H]4SC[C@@H]5NC(=O)N[C@@H]54)c3)cc2)CC1 [Example 1.6, N-(39-(4′-((1S,2R)-2-(((trans)-4-aminocyclohexyl)amino)cyclopropyl)-[1,1′-biphenyl]-3-yl)-37-oxo-3,6,9,12,15,18,21,24,27,30,33-undecaoxa-36-azanonatriacontyl)-5-((3aS,4S,6aR)-2-oxohexahydro-1H-thieno[3,4-d]imidazol-4-yl)pentanamide dihydrochloride]
IC50 (Human recombinant MAO-A): > 100 µM | IC50 (Human recombinant MAO-B): > 100 µM | IC50 (hIL-4I1; KM phenylalanine, 30 minutes): > 100 µM | inhibition at 100 µM (hIL-4I1; at 100 uM): 31% | IC50 [2]: 13 µM

N[C@H]1CC[C@H](N[C@@H]2C[C@H]2c2ccccc2)CC1 [ORY-1001, (trans)-N1-((1R,2S)-2-phenylcyclopropyl)cyclohexane-1,4-diamine]
free KDM1A signal (AlphaLISA) (human rKDM1A): blocked | KDM1A target engagement (KDM1A in LNCap cells): clear KDM1A target engagement | KDM1A target engagement (in %) (KDM1A in rat PBMCs [3]): clear dose-response of KDM1A target engagement | KDM1A target engagement (in %) (KDM1A in rat lung): clear dose-response of KDM1A target engagement | target engagement after multiple administrations versus single administration (KDM1A in rat PBMCs [4]; at the same dose level): higher than single administration | percentage of KDM1A target engagement over time (KDM1A in rat PBMCs [4]; pooled rat PBMCs, p.o. 2.5 and 15 ug/kg/day, single dose or 5 consecutive days): clear time- and dose-response in KDM1A target engagement | percentage of KDM1A target engagement after the last dose in absence of further treatment (KDM1A in rat PBMCs [4]; up to 72 h after the last administration): gradually decreases | effect of pretreatment on pull-down of KDM1A by chemoprobe (KDM1A from THP-1 cells): completely prevented pull-down of KDM1A | effect of pre-treatment on pull-down of KDM1A by chemoprobes [5]: completely prevented pull-down of KDM1A | % of KDM1A target engagement (KDM1A in MV(4;11) cells): dose-responsive cellular target engagement | % of Target engagement (KDM1A in THP-1 cells): dose-responsive cellular target engagement
